Here are results for 10 compounds from patent US10745382B2 (BRISTOL-MYERS SQUIBB COMPANY, priority 2015, dated 2020).

What is called IC50 is the concentration at which inhibition is half-maximal.

T1 sequence (Q9NZQ7 with tags, fused parts or gaps): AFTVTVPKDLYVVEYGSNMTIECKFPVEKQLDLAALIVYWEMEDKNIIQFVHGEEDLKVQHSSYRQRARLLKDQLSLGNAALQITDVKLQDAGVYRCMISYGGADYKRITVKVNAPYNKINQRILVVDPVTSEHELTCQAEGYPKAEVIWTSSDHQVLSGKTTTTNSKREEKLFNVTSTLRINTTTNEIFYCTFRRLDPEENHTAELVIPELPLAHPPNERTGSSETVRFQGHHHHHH

The assay concerns the target T1, PD-1/PD-L1 (Homo sapiens, UniProt Q9NZQ7).
T1 construct: made in house; host or cells: HEK293T
Nature of the assay: PD-1/PD-L1 Homogenous Time-Resolved Fluorescence (HTRF) binding assay. The note with it: PD-L1-His 10 nM, PD-1-Ig 20 nM; value given as range class; read-out: Range or IC50. The essentials: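 Read-out is time-resolved FRET between europium cryptate-labelled anti-Ig (1 nM final) and APC-labelled anti-His (20 nM final), both dispensed onto the binding mix. Assay buffer: dPBS containing 0.1% bovine serum albumin and 0.05% Tween-20.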
A general note: Time-resolved FRET reads energy transfer from a long-lived donor to a nearby acceptor.
Consider `Cc1cccc(C)c1COc1cc(OCc2cccc(-c3cccc(OCCCN4CC[C@@H](O)C4)c3C)c2C)c(Cl)cc1CN1CCCC[C@H]1C(=O)O` [Example 4516, (S)-1-(5-chloro-2-((2,6-dimethylbenzyl)oxy)-4-((3′-(3-((R)-3-hydroxypyrrolidin-1-yl)propoxy)-2,2′-dimethyl-[1,1′-biphenyl]-3-yl)methoxy)benzyl)piperidine-2-carboxylic Acid], for which the IC50 lay in the range of 2010 to 10000 nM. In the case of `COc1cc(/C=C/c2cccc(-c3cccc(OCCCN4CC[C@@H](O)C4)c3C)c2C)c(Cl)cc1CN1CCCC[C@H]1C(=O)O` [Example 4517, (S)-1-(5-chloro-4-((E)-2-(3′-(3-((R)-3-hydroxypyrrolidin-1-yl)propoxy)-2,2′-dimethyl-[1,1′-biphenyl]-3-yl)vinyl)-2-methoxybenzyl)piperidine-2-carboxylic Acid], the 50% inhibitory concentration (IC50) lay in the range of 0.21 to 10 nM. Turning to `COc1cc(CCc2cccc(-c3cccc(OCCCN4CC[C@@H](O)C4)c3C)c2C)c(Cl)cc1CN1CCCC[C@H]1C(=O)O` [Example 4518, (S)-1-(5-chloro-4-(2-(3′-(3-((R)-3-hydroxypyrrolidin-1-yl)propoxy)-2,2′-dimethyl-[1,1′-biphenyl]-3-yl)ethyl)-2-methoxybenzyl)piperidine-2-carboxylic Acid], the IC50 lay within 0.21 to 10 nM. For `COc1cc(NC(=O)c2cccc(-c3cccc(OCCCN4CC[C@@H](O)C4)c3C)c2C)c(Cl)cc1C(=O)N1CCCC[C@H]1C(=O)O` [Example 4519, (S)-1-(5-chloro-4-(3′-(3-((R)-3-hydroxypyrrolidin-1-yl)propoxy)-2,2′-dimethyl-[1,1′-biphenyl]-3-ylcarboxamido)-2-methoxybenzoyl)piperidine-2-carboxylic Acid] the value was 100 to 2000 nM; for `Cc1c(COc2cc(OCc3cc(F)cc(F)c3)c(CNC(C)(CO)CO)cc2Cl)cccc1-c1cccc(OCCCN2CC[C@@H](O)C2)c1C` [Example 4520, (R)-2-((5-chloro-2-((3,5-difluorobenzyl)oxy)-4-((3′-(3-(3-hydroxypyrrolidin-1-yl)propoxy)-2,2′-dimethyl-[1,1′-biphenyl]-3-yl)methoxy)benzyl)amino)-2-methylpropane-1,3-diol], 0.21 to 10 nM. On to `Cc1c(COc2cc(OCc3cc(F)cc(F)c3)c(CN3CCCC[C@H]3C(=O)O)cc2Cl)cccc1-c1cccc(OCCCN2CC[C@@H](O)C2)c1C` [Example 4521, (S)-1-(5-chloro-2-((3,5-difluorobenzyl)oxy)-4-((3′-(3-((R)-3-hydroxypyrrolidin-1-yl)propoxy)-2,2′-dimethyl-[1,1′-biphenyl]-3-yl)methoxy)benzyl)piperidine-2-carboxylic Acid], for which the IC50 lay within 0.21 to 10 nM. For `Cc1c(COc2cc(OCc3cc(F)cc(F)c3)c(CO)cc2Cl)cccc1-c1cccc(OCCCN2CC[C@@H](O)C2)c1C` [Example 4522, (R)-1-(3-((3′-((2-chloro-5-((3,5-difluorobenzyl)oxy)-4-(hydroxymethyl)phenoxy)methyl)-2,2′-dimethyl-[1,1′-biphenyl]-3-yl)oxy)propyl)pyrrolidin-3-ol] the value was 10 to 100 nM. Consider `Cc1cc(OCc2cccc(-c3cccc(OCCCN4CC[C@@H](O)C4)c3C)c2C)c(Cl)cc1CN1CCCC[C@H]1C(=O)O` [Example 4523, (S)-1-(5-chloro-4-((3′-(3-((R)-3-hydroxypyrrolidin-1-yl)propoxy)-2,2′-dimethyl-[1,1′-biphenyl]-3-yl)methoxy)-2-methylbenzyl)piperidine-2-carboxylic Acid], for which the IC50 is 0.21 to 10 nM.

On to `Cc1c(COc2ccc(CN3CCCC[C@H]3C(=O)O)c(C)c2Cl)cccc1-c1cccc(OCCCN2CC[C@@H](O)C2)c1C` [Example 4524, (S)-1-(3-chloro-4-((3′-(3-((R)-3-hydroxypyrrolidin-1-yl)propoxy)-2,2′-dimethyl-[1,1′-biphenyl]-3-yl)methoxy)-2-methylbenzyl)piperidine-2-carboxylic Acid], for which the IC50 is 10 to 100 nM. For “tert-butyl (S)-3-(((3′-((2-chloro-5-((5-cyanopyridin-3-yl)methoxy)-4-(((1,3-dihydroxypropan-2-yl)amino)methyl)phenoxy)methyl)-2,2′-dimethyl-[1,1′-biphenyl]-3-yl)oxy)methyl)pyrrolidine-1-carboxylate [Example 2322]”, the half-inhibitory concentration (IC50) was in the range of 10 to 100 nM.
